According to ChEMBL document CHEMBL5728432, “Potent and selective mu opioid receptor modulators” (2021):

What follows are compounds tested against Mu-type opioid receptor (Homo sapiens, UniProt P35372) (assay: Competition Binding Assay: The competition binding assay was conducted to determine the affinity and selectivity of the synthesized compounds to MOR over KOR and DOR. The Kd and Bmax values for [3H]NLX at MOR and [3H]DPN at KOR had been determined previously. […] [3H]NLX was used to label MOR whilst [3H]DPN was used to label both DOR and KOR. The potency of the new compounds in displacing the specific binding of the radioligand was determined by linear regression analysis of Hill plots.).
Chain of Mu-type opioid receptor (P35372 whole entry): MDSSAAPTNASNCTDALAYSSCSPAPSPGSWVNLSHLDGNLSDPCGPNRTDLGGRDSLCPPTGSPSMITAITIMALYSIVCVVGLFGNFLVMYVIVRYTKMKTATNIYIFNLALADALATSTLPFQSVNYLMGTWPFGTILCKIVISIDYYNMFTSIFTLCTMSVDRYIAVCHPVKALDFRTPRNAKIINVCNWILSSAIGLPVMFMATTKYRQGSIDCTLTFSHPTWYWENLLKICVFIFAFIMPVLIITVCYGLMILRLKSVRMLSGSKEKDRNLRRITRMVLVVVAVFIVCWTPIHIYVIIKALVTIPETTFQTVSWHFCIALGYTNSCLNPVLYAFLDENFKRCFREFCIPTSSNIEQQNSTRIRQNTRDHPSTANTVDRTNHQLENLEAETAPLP
In the case of `O=C(Cc1c[nH]c2ccccc12)N[C@@H]1CC[C@@]2(O)[C@H]3Cc4ccc(O)c5c4[C@@]2(CCN3CC2CC2)[C@H]1O5`, the Ki is reported as 0.241 nM.
`O=C(N[C@H]1CC[C@@]2(O)[C@H]3Cc4ccc(O)c5c4[C@@]2(CCN3CC2CC2)[C@H]1O5)c1ccc2cc[nH]c2c1` was tested, and the Ki was 0.434 nM.
`O=C(CCCc1c[nH]c2ccccc12)N[C@@H]1CC[C@@]2(O)[C@H]3Cc4ccc(O)c5c4[C@@]2(CCN3CC2CC2)[C@H]1O5` showed a Ki of 0.203 nM.
`O=C(CCc1c[nH]c2ccccc12)N[C@@H]1CC[C@@]2(O)[C@H]3Cc4ccc(O)c5c4[C@@]2(CCN3CC2CC2)[C@H]1O5` gave a Ki of 0.167 nM.
For `O=C(CCCc1c[nH]c2ccccc12)N[C@H]1CC[C@@]2(O)[C@H]3Cc4ccc(O)c5c4[C@@]2(CCN3CC2CC2)[C@H]1O5`, the Ki was 0.293 nM.
With `O=C(N[C@H]1CC[C@@]2(O)[C@H]3Cc4ccc(O)c5c4[C@@]2(CCN3CC2CC2)[C@H]1O5)c1cccc2[nH]ccc12` the Ki was 0.264 nM.
In the case of `O=C(N[C@H]1CC[C@@]2(O)[C@H]3Cc4ccc(O)c5c4[C@@]2(CCN3CC2CC2)[C@H]1O5)c1c[nH]c2ccccc12`, the Ki is reported as 0.288 nM.
`O=C(N[C@H]1CC[C@@]2(O)[C@H]3Cc4ccc(O)c5c4[C@@]2(CCN3CC2CC2)[C@H]1O5)c1cc2ccccc2[nH]1` gave a Ki of 0.363 nM.
`O=C(N[C@H]1CC[C@@]2(O)[C@H]3Cc4ccc(O)c5c4[C@@]2(CCN3CC2CC2)[C@H]1O5)c1ccc2[nH]ccc2c1` was tested, and the Ki was 0.763 nM.
In the case of `O=C(Cc1c[nH]c2ccccc12)N[C@H]1CC[C@@]2(O)[C@H]3Cc4ccc(O)c5c4[C@@]2(CCN3CC2CC2)[C@H]1O5`, the Ki is reported as 0.837 nM.
In the case of `O=C(CCc1c[nH]c2ccccc12)N[C@H]1CC[C@@]2(O)[C@H]3Cc4ccc(O)c5c4[C@@]2(CCN3CC2CC2)[C@H]1O5`, the Ki is reported as 0.437 nM.
